Source: article PMC11358882, “Neuroprotective Effects of Phenolic Constituents from Drynariae Rhizoma” (Pharmaceuticals, 2024)
Where “and” joins values, the source holds several entries; their conditions need not be identical. Equal entries are not always repeated.

What was measured:
BACE1 = target: T1, BACE1 (Homo sapiens, UniProt P56817); assay: BACE1 (β-secretase) FRET inhibitory assay; type: biochemical; conditions: isolated compounds; mean ± SD, n = 3; read-out: IC50 BACE1
T1 construct: purchased PanVera Corporation, Madison, WI, USA P2985
Method: The BACE1 inhibition assay was conducted using the BACE1 (β-secretase) FRET Assay Kit, Red Protocol, part number P2985 (PanVera® Corporation, Madison, WI, USA), following the manufacturer’s recommended protocol with minor modifications. The assay mixture consisted of 10 μL of BACE1 (1.0 U/mL), 10 μL of substrate (750 nM Rh-[…]-Quencher in 50 mM ammonium bicarbonate), the assay buffer (50 mM sodium acetate, pH 4.5), and 10 μL of the test samples. […] The reaction mixture was incubated for 60 min at room temperature in darkness. Before measurement, a stop solution (2.5 M sodium acetate) was added to halt the reaction. BACE1 enzyme activity was assessed by monitoring the proteolysis of two fluorophores (Rh-[…]-Quencher), forming the fluorescent donor (Rh-EVNL) with increased fluorescence wavelengths at 530–545 nm (excitation) and 570–590 nm (emission), respectively. All reactions were recorded in black 96-well microplates and performed in triplicate. The percentage of inhibition (%) was calculated using the following formula: inhibition (%)=[1−(S60−S0)/(C60−C0)]×100 , where C60 represents the fluorescence of the control after incubation, C0 represents the initial fluorescence of the control, S60 represents the fluorescence of the tested sample after incubation, and S0 represents the initial fluorescence of the tested sample. The BACE1-inhibitory activities of each sample were quantified in terms of IC50, which was determined from the log–dose inhibition curve.

MAO-B = target: T2, MAO-B (Homo sapiens, UniProt P27338); assay: MAO-B inhibitor screening kit (fluorometric) assay; type: biochemical; conditions: isolated compounds; mean ± SD, n = 3; ND = no detection using test concentration
T2 construct: purchased Abcam plc, Cambridge, UK ab284511
T2 sequence (P27338 1-520): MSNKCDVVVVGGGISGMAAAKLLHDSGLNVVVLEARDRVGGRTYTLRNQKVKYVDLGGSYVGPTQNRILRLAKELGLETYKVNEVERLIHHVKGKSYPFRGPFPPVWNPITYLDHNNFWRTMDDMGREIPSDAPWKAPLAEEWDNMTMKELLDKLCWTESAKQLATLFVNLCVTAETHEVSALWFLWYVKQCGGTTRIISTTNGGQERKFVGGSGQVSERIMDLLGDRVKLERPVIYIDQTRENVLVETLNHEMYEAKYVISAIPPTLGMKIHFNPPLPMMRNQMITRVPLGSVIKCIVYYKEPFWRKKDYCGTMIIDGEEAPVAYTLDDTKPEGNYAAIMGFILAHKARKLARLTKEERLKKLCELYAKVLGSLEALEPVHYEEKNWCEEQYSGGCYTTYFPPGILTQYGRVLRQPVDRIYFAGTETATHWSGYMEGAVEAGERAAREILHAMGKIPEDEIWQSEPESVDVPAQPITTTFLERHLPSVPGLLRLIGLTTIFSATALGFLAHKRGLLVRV
Method: The MAO-B-inhibition assay was conducted using the MAO-B Inhibitor Screening Kit (Fluorometric) ab284511 (Abcam plc, Cambridge, UK), following the manufacturer’s recommended protocol with minor modifications. The enzyme solution (50 µL) and the test sample (10 µL) were adjusted as per the manual instructions. […] After mixing, samples and enzymes were incubated at 25 °C for 10 min. Subsequently, 40 μL of MAO-B substrate (comprising MAO-B assay buffer, MAO substrate, developer, and OxiRed probe) was added, followed by further incubation at 25 °C for 5 min. Fluorescence was measured using enzyme-linked immunosorbent assay within 40 min with dynamic fluorescence (Ex/Em = 535/587 nm). All reactions were recorded in black 96-well microplates and performed in triplicate. The slope for all samples, including the enzyme control (EC), was calculated by dividing the net ΔRFU (RFU2–RFU1) values by the time Δt (T2 − T1). The % relative inhibition was computed as follows: % relative inhibition=(slope of EC−slope of S)/slope of EC×100 . The MAO-B-inhibitory activities of each sample were quantified in terms of IC50, as determined from the log–dose inhibition curve.

β-secretase = assay: Western blot of β-secretase levels in APP-CHO cells; type: cell-based, Chinese hamster; conditions: 1.0 μM, 24 h
Method: (§1) APP-CHO cells were seeded in six-well plates at a density of 6 × 10^5 cells/1000 μL of medium per well and incubated at 37 °C overnight for cell attachment. Then, the medium was replaced with FBS-free RPMI 1640 for 1 h, followed by treatment with test samples at 37 °C. After 24 h, the cells were washed with PBS and lysed in Laemmli sample buffer. The collected cell lysates were boiled at 100 °C for 10 min. For Western blot analysis, 20 μg of proteins were separated by 7.5% SDS-PAGE and transferred to a PVDF membrane using Trans-Blot® Turbo TM (Bio-Rad, Hercules, CA, USA). The membrane was blocked with 5% skim milk in PBS for 1 h and incubated with primary antibodies overnight at 4 °C. The primary antibodies used were sAPPβ antibody, BACE1 antibody, and α-tubulin antibody diluted at 1:1000, 1:1000, and 1:25,000, respectively. After washing with PBS-T (0.1% Tween 20 in PBS) three times for 10 min each, secondary antibodies, diluted to 1:2500, were incubated for 1 h. Protein detection was performed using ECL solution reagent and protein visualization (ChemiDoc^TM XRS+., Bio-Rad, Hercules, CA, USA). The signal intensity of the bands was quantified and normalized to the signal intensity of the α-tubulin band. Results were expressed as a percentage of DMSO-treated control.

sAPPβ = assay: Western blot of sAPPβ levels in APP-CHO cells; type: cell-based, Chinese hamster; conditions: 1.0 μM, 24 h
Method: as §1

T1 sequence (P56817 46-501): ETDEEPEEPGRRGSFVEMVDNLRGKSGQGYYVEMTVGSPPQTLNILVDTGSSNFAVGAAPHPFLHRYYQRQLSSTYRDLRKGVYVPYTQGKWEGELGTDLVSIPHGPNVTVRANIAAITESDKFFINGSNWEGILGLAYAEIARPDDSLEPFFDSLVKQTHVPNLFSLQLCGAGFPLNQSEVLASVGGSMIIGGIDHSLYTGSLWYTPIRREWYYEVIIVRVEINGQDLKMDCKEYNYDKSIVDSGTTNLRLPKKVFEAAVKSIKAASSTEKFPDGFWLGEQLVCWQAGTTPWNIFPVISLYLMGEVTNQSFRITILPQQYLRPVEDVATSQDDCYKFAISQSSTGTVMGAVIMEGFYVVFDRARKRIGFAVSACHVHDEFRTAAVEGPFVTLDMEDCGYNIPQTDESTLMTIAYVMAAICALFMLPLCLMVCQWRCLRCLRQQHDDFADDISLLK

SMILES	IC50 (BACE1) [µM]	IC50 (MAO-B) [µM]	reduction of β-secretase levels compared to DMSO-treated controls (β-secretase)	reduction of sAPPβ levels compared to DMSO-treated controls (sAPPβ) [%]
C[C@@H]1O[C@@H](Oc2c(-c3ccc(O)cc3)oc3cc(O[C@@H]4O[C@H](CO)[C@@H](O)[C@H](O)[C@H]4O)cc(O)c3c2=O)[C@H](O)[C@H](O)[C@H]1O [Compound 6, kaempferol 3-O-rhamnoside 7-O-glucoside]	83.27 ± 0.33	109.19 ± 0.08	30%	30
O=c1c(O[C@@H]2O[C@H](CO)[C@@H](O)[C@H](O)[C@H]2O)c(-c2ccc(O)cc2)oc2cc(O[C@@H]3O[C@@H](CO)[C@H](O)[C@H]3O)cc(O)c12 [Compound 7, kaempferol 3-o-b-d-glucopyranoside-7-o-a-L-arabinofuranoside]	39.11 ± 0.17	65.8 ± 3.72	40% and 30%	30
